Source: US20240124404A1, “COMPOSITION FOR TREATING DISEASES RELATED TO ADVANCED GLYCATION END PRODUCTS COMPRISING INDOLE DERIVATIVE” (METACEN THERAPEUTICS, priority 2021, published 2024)
Read-outs that look alike come from different tables or passages of the source.

What was measured:
[1] = Methylglyoxal (MGO) trapping ability: fluorescence intensity of reaction product; format: biochemical; conditions: compound 1.0 mM in MGO+PBS pH 7.4, 37° C., 1 day; ex 355 nm / em 460 nm; 10×10^3 or more = trapping ability
Method: Methylglyoxal (MGO) is a main precursor of advanced glycation end products that cause complications due to diabetes mellitus. Successful trapping of methylglyoxal (MGO) can inhibit the production of advanced glycation end products.
A mixture was prepared by adding methylglyoxal (MGO) to phosphate buffered saline (PBS, Cat no. 10010023, pH 7.4). […] The fluorescence intensity of the reaction product was measured at an excitation wavelength of 355 nm and an emission wavelength of 460 nm using a VICTOR™X3 multilabel plate reader.
The higher the fluorescence intensity measured from the reaction product, the higher the ability of the compound to trap methylglyoxal. In addition, in this experimental example, when the fluorescence intensity was 10×10^3 or more, it was determined that the compound had the ability to trap methylglyoxal.

[2] = Methylglyoxal (MGO) trapping ability: free MGO concentration by HPLC; format: biochemical; conditions: compound 1:1 with MGO in PBS pH 7.4, 37° C.; for MGO concentration on day 7: MGO + PBS control 436.38; for MGO concentration on day 1: MGO + PBS control 499.53
Method: Specifically, a mixture was prepared by adding methylglyoxal (MGO) to phosphate buffered saline (PBS, Cat no. 10010023, pH 7.4). The compound of the present invention was added to the mixture (MGO+PBS) at a concentration of 1:1 with methylglyoxal (MGO) and reacted, and then cultured at 37° C. for 1 day.

N2a cells = test: Protection against MGO-induced cytotoxicity in N2a cell line (MTT); conditions: Mus musculus
Method: Specifically, N2a cells were dispensed at 2×10^4 cells/well in a 96 well plate. Each cell line was pre-/post-treated with the compound of the present invention at a concentration of 500 nM or aminoguanidine (AG) at a concentration of 1 mM for 1 hour, and then pre-/post-treated with 500 μM MGO, and cultured for 24 hours. The medium was removed and then treated with 0.5 mg/ml 3-(4,5-dimethylthiazol-2-yl)-2,5-diphenyltetrazolium bromide (MTT) solution for 1 hour, and the reduced formazan was dissolved in 150 μl of DMSO, and the cell viability was measured by a microspectrophotometer at a wavelength of 570 nm.

SH-SY5Y cells = test: Protection against MGO-induced cytotoxicity in SH-SY5Y cell line (MTT); conditions: Homo sapiens
Method: Specifically, SH-SY5Y cells were dispensed at 2×10^4 cells/well in a 96 well plate. Each cell line was pre-/post-treated with the compound of the present invention at a concentration of 500 nM or aminoguanidine (AG) at a concentration of 1 mM for 1 hour, and then pre-/post-treated with 500 μM MGO, and cultured for 24 hours. The medium was removed and then treated with 0.5 mg/ml 3-(4,5-dimethylthiazol-2-yl)-2,5-diphenyltetrazolium bromide (MTT) solution for 1 hour, and the reduced formazan was dissolved in 150 μl of DMSO, and the cell viability was measured by a microspectrophotometer at a wavelength of 570 nm.

[3] = 24 h, read-out: Cell viability, Post-treatment
[4] = read-out: Cell viability, Pre-treatment

Row | SMILES | Fluorescence intensity on day 1 (×10^3) [1] | MGO concentration on day 7 [2] [µM] | MGO concentration on day 1 [2] [µM] | viability at 1000 µM (N2a cells; [3]) [%] | viability at 1000 µM (N2a cells; [4]) [%] | viability at 1000 µM (SH-SY5Y cells; [3]) [%] | viability at 1000 µM (SH-SY5Y cells; [4]) [%]
1 | N[C@H](CO)Cc1c[nH]c2ccc(O)cc12 [Compound 29, (S)-3-(2-amino-3-hydroxypropyl)-1H-indol-5-ol (L-tryptophanol)] | 362.50 ± 17.85 ×10^3 | 0 | 18.56 |  |  |  | 
2 | NCC(N)Cc1c[nH]c2ccc(O)cc12 (stereo not shown) [Compound 30, 3-(2,3-diaminopropyl)-1H-indol-5-ol] | 156.92 ± 1.22 ×10^3 | 16.43 | 235.58 |  |  |  | 
3 | N#CC(N)Cc1c[nH]c2ccc(O)cc12 (stereo not shown) [Compound 31, 2-amino-3-(5-hydroxy-1H indol-3-yl)propanenitrile] | 14.58 ± 0.34 ×10^3 | 0 | 7.30 |  |  |  | 
4 | N=C(N)NN [AG, aminoguanidine] |  |  |  | 102 ± 11.9 | 111 ± 9.32 | 52.01 ± 0.24 | 84.7 ± 1.75
